Data on ten compounds can be found in patent publication US20230031406A1, “COMPOUNDS AND COMPOSITIONS FOR TREATING CONDITIONS ASSOCIATED WITH NLRP ACTIVITY” (Novartis AG, priority 2018, published 2023).

As usually defined, the IC50 is the concentration at which inhibition is half-maximal.

The test system of the assay is PMA-differentiated THP-1 cells. As to the kind of experiment: IL-1β production in PMA-differentiated THP-1 cells stimulated with gramicidin (hTHP-1 assay containing 2% fetal bovine serum; Procedures 1 and 2). Conditions: 2% fetal bovine serum. In kind it is cell-based, human. The method, boiled down:
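Secreted IL-1β, read by HTRF, after gramicidin challenge (5 μM, 2 h) of THP-1 cells differentiated with PMA (20 ng/ml, 16-18 h) and plated at 50,000 cells/well in 2% FBS medium. Compounds, 0.0017-100 μM final with 0.37% DMSO, were added 1 h before stimulation.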

The mark [1] stands for this setting: Homo sapiens, THP-1, Table B1, class symbols, read-out: Average IC50 of compounds in hTHP-1 assay: hTHP-1 IC50.
[2] abbreviates: Homo sapiens, THP-1, Table B2, class symbols, read-out: hTHP-1 IC50.
[3] abbreviates: Table B2, class symbols, read-out: hTHP-1 IC50.
The mark [4] stands for this setting: Table B1, class symbols, read-out: Average IC50 of compounds in hTHP-1 assay: hTHP-1 IC50.

Like-named read-outs stand apart in the source and are kept apart here.

With `CN(C)Cc1ccc(S(N)(=O)=NC(=O)Nc2c3c(nc4c2CCC4(C)C)CCC3)cc1` (stereo not shown) [Compound 125, N′-((3,3-dimethyl-1,2,3,5,6,7-hexahydrodicyclopenta[b,e]pyridin-8-yl)carbamoyl)-4-((dimethylamino)methyl)benzenesulfonimidamide], the IC50 under setting [1] lay within 1000 to 5000 nM.

As for `Cc1c(C(F)(F)F)nc2c(c1NC(=O)N=S(N)(=O)c1cc(C(C)(C)O)cs1)CCC2` (stereo not shown) [Compound 624, 4-(2-Hydroxypropan-2-yl)-N′-((3-methyl-2-(trifluoromethyl)-6,7-dihydro-5H-cyclopenta[b]pyridin-4-yl)carbamoyl)thiophene-2-sulfonimidamide], under setting [2], the IC50 was 40 to 200 nM.

On to `Cc1c(C(F)(F)F)nc2c(c1NC(=O)N=S(N)(=O)c1cc(C(C)(C)O)cs1)CCC2` (single isomer, unassigned) [Compound 624b, (R) or (S)-4-(2-Hydroxypropan-2-yl)-N′-((3-methyl-2-(trifluoromethyl)-6,7-dihydro-5H-cyclopenta[b]pyridin-4-yl)carbamoyl) thiophene-2-sulfonimidamide], for which, under setting [3], the IC50 is 40 to 200 nM.

Turning to `CC(C)(O)c1ccc(S(N)(=O)=NC(=O)Nc2c3c(nc4c2CCC4)CCC3)cc1` (single isomer, unassigned) [Compound 633a, (S) or (R)-N′-((1,2,3,5,6,7-hexahydrodicyclopenta [b,e]pyridin-8-yl)carbamoyl)-4-(2-hydroxypropan-2-yl)benzene-sulfonimidamide], where the note is “Homo sapiens, THP-1, Table B2, numeric bounds, read-out: hTHP-1 IC50”, the IC50 was more than 30000 nM.

For the compound `Cc1c(C(F)(F)F)nc2c(c1NC(=O)N=S(N)(=O)c1cnc(C(C)(O)CO)s1)CCC2` (single isomer, unassigned) [Compound 605g, (S, S) or (R, S)-2-(1,2-Dihydroxypropan-2-yl)-N′-((3-methyl-2-(trifluoromethyl)-6,7-dihydro-5H-cyclopenta[b]pyridin-4-yl)carbamoyl) thiazole-5-sulfonimidamide], the IC50 under setting [3] lay within 5000 to 30000 nM.

For `C[C@](O)(CO)c1cc(F)c([S@@](N)(=O)=NC(=O)Nc2c3c(nc4c2CCC42CC2)CCC3)s1` [Example 677, (S)-5-((S)-1,2-dihydroxypropan-2-yl)-3-fluoro-N′-((1′,5′,6′,7′-tetrahydro-2′H-spiro[cyclopropane-1,3′-dicyclopenta[b,e]pyridin]-8′-yl)carbamoyl)thiophene-2-sulfonimidamide], where the note is “Homo sapiens, THP-1, Table B3, hTHP-1 assay, class symbols, read-out: IC50”, the concentration for half-maximal inhibition (IC50) lay within 5000 to 30000 nM.

Take `COC(C)(C)c1nc(CO)c(S(N)(=O)=NC(=O)Nc2c3c(nc4c2CCC4(C)C)CCC3)s1` (stereo not shown) [Compound 648, N′-((3,3-dimethyl-1,2,3,5,6,7-hexahydrodicyclopenta[b,e]pyridin-8-yl)carbamoyl)-4-(hydroxymethyl)-2-(2-methoxypropan-2-yl)thiazole-5-sulfonimidamide]: the IC50 under setting [2] lay within 1000 to 5000 nM.

On to `CNS(=O)(=NC(=O)Nc1c2c(nc3c1CCC3)CCC2)c1ccc(CN(C)C)cc1` (stereo not shown) [Compound 120, 4-((Dimethylamino)methyl)-N′-((1,2,3,5,6,7-hexahydrodicyclopenta[b,e]pyridin-8-yl)carbamoyl)-N-methylbenzenesulfonimidamide], for which the IC50 under setting [1] was 200 to 1000 nM.

Regarding `CC1CCc2c1nc1c(c2NC(=O)N=S(N)(=O)c2cnc(C(C)(C)O)s2)CCC1` (stereo not shown) [Compound 162, 2-(2-hydroxypropan-2-yl)-N′-((3-methyl-1,2,3,5,6,7-hexahydrodicyclopenta[b,e]pyridin-8-yl)carbamoyl)thiazole-5-sulfonimidamide], the IC50 under setting [4] was in the range of 40 to 200 nM.

With `CC(C)c1ncc(F)c(C(C)C)c1NC(=O)N=S(N)(=O)c1cnc(C(C)(C)O)s1` (single isomer, unassigned) [Compound 164b, (S) or (R)-N′-((5-fluoro-2,4-diisopropylpyridin-3-yl)carbamoyl)-2-(2-hydroxypropan-2-yl)thiazole-5-sulfonimidamide], the half-inhibitory concentration (IC50) under setting [4] was in the range of 5000 to 30000 nM.
